For orientation: MIC means the lowest concentration found to suppress growth.

Experimental findings from patent US9850256B2, “Antibacterial basic biaromatic derivatives with aminoalkoxy substitution” (priority 2014, dated 2017) are described below.

Holding throughout (assay): Bacterial growth minimal inhibitory concentration (microdilution, cation-adjusted Mueller-Hinton Broth)
For orientation: Broth dilution looks for growth in wells or tubes with falling amounts of substance.

Experiment [1] deals with S. aureus A798. The experiment is classed as cell-based, Staphylococcus aureus. Particulars: multiply-resistant strain (methicillin- and quinolone-resistant); for MIC: Staphylococcus aureus, A798. Summed up: (§1)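 Broth microdilution in cation-adjusted Mueller-Hinton Broth per CLSI M7-A7; MICs in mg/L. S. aureus A798 is methicillin- and quinolone-resistant, K. pneumoniae T6474 penicillin-, cephalosporin- and quinolone-resistant; E. coli ATCC25922 and P. aeruginosa ATCC 27853 are quinolone-sensitive.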

Experiment [2] concerns E. coli ATCC25922. The format is cell-based. To be noted: quinolone-sensitive strain; for MIC: Escherichia coli, ATCC25922. Summed up: as §1
For experiment [3], the system named is K. pneumoniae T6474. The format is cell-based, Klebsiella pneumoniae. Particulars: multiply-resistant strain (penicillin-, cephalosporin- and quinolone-resistant); for MIC: Klebsiella pneumoniae, T6474. Summed up:
as §1

Experiment [4] concerns P. aeruginosa ATCC 27853. The experiment is classed as cell-based, Pseudomonas aeruginosa. Particulars: quinolone-sensitive strain; for MIC: Pseudomonas aeruginosa, ATCC27853. Summed up: as §1

In brackets after ≈: the same amount, converted by molar mass.

Turning to `O=C1COc2ccc(N3C[C@H](CCNCc4cccc(-c5cccc(OC[C@@H]6CCCN6)c5)c4)OC3=O)nc2N1` [Example $102, 6-((S)-2-oxo-5-(2-(((3′-(((S)-pyrrolidin-2-yl)methoxy)-[1,1′-biphenyl]-3-yl)methyl)amino)ethyl)oxazolidin-3-yl)-2H-pyrido[3,2-b][1,4]oxazin-3(4H)-one], the MIC in experiment [1] amounted to 2 µg/mL (≈ 3.68 µM); in experiment [2], 1 µg/mL (≈ 1.84 µM); in experiment [3] it was 2 µg/mL (≈ 3.68 µM); in experiment [4] it was 2 µg/mL (≈ 3.68 µM).

Turning to `NCCOc1cccc(-c2cccc(CNCC[C@H]3CN(c4ccc5c(n4)NC(=O)CO5)C(=O)O3)c2)c1` [Example 1, 6-[(S)-5-(2-{[3′-(2-amino-ethoxy)-biphenyl-3-ylmethyl]-amino}-ethyl)-2-oxo-oxazolidin-3-yl]-4H-pyrido[3,2-b][1,4]oxazin-3-one], the MIC is 2 µg/mL (≈ 3.97 µM) in experiment [1], 1 µg/mL (≈ 1.99 µM) in experiment [2], 1 µg/mL (≈ 1.99 µM) in experiment [3] and 2 µg/mL (≈ 3.97 µM) in experiment [4].

As for `CN1CC[C@H](Oc2cccc(-c3cncc(CNCC[C@H]4CN(c5ccc6c(n5)NC(=O)CO6)C(=O)O4)c3)n2)C1` [Example $138, 6-[(S)-5-(2-{[6-((S)-1-methyl-pyrrolidin-3-yloxy)-[2,3′]bipyridinyl-5′-ylmethyl]-amino}-ethyl)-2-oxo-oxazolidin-3-yl]-4H-pyrido[3,2-b][1,4]oxazin-3-one], the MIC is 2 µg/mL (≈ 3.67 µM) in experiment [1], 1 µg/mL (≈ 1.83 µM) in experiment [2], 2 µg/mL (≈ 3.67 µM) in experiment [3] and 2 µg/mL (≈ 3.67 µM) in experiment [4].

For the compound `COc1cc(O[C@H]2CCN(C)C2)cc(-c2cccc(CNCC[C@H]3CN(c4ccc5c(n4)NC(=O)CO5)C(=O)O3)c2)n1` [Example $170, 6-[(S)-5-(2-{3-[6-methoxy-4-((S)-1-methyl-pyrrolidin-3-yloxy)-pyridin-2-yl]-benzylamino}-ethyl)-2-oxo-oxazolidin-3-yl]-4H-pyrido[3,2-b][1,4]oxazin-3-one], the minimal inhibitory concentration (MIC) in experiment [1] stood at 0.25 µg/mL (≈ 0.435 µM); in experiment [2], 2 µg/mL (≈ 3.48 µM); in experiment [3] it was 4 µg/mL (≈ 6.96 µM); in experiment [4], 2 µg/mL (≈ 3.48 µM).

As to `CN1CC[C@H](Oc2cnnc(-c3cccc(CNCC[C@H]4CN(c5ccc6c(n5)NC(=O)CO6)C(=O)O4)c3)c2)C1` [Example $153, 6-[(S)-5-(2-{3-[5-((S)-1-methyl-pyrrolidin-3-yloxy)-pyridazin-3-yl]-benzylamino}-ethyl)-2-oxo-oxazolidin-3-yl]-4H-pyrido[3,2-b][1,4]oxazin-3-one], the MIC in experiment [1] was found to be 4 µg/mL (≈ 7.33 µM); in experiment [2], 2 µg/mL (≈ 3.67 µM); in experiment [3], 4 µg/mL (≈ 7.33 µM); in experiment [4], 4 µg/mL (≈ 7.33 µM).

On to `O=C1COc2ccc(N3C[C@H](CCNCc4cccc(-c5cccc(OCC6COCCN6)n5)c4)OC3=O)nc2N1.O=CO` (mixture of isomers) [Example $110, 6-[(S)-5-(2-{3-[6-((RS)-1-morpholin-3-ylmethoxy)-pyridin-2-yl]-benzylamino}-ethyl)-2-oxo-oxazolidin-3-yl]-4H-pyrido[3,2-b][1,4]oxazin-3-one formate], for which the MIC in experiment [1] amounted to 0.25 µg/mL; in experiment [2] it was 1 µg/mL; in experiment [3] it was 2 µg/mL; in experiment [4], 2 µg/mL.

Turning to `O=C1COc2ccc(N3C[C@H](CCNCc4cccc(-c5cccc(OC6CNC6)n5)c4)OC3=O)nc2N1` [Example $107, 6-[(S)-5-(2-{3-[6-(azetidin-3-yloxy)-pyridin-2-yl]-benzylamino}-ethyl)-2-oxo-oxazolidin-3-yl]-4H-pyrido[3,2-b][1,4]oxazin-3-one], the MIC was found to be 1 µg/mL (≈ 1.94 µM) in experiment [1], 0.5 µg/mL (≈ 0.968 µM) in experiment [2], 2 µg/mL (≈ 3.87 µM) in experiment [3] and 0.5 µg/mL (≈ 0.968 µM) in experiment [4].

As to `CN1CC(Oc2cncc(-c3ccnc(CNCC[C@H]4CN(c5ccc6c(n5)NC(=O)CO6)C(=O)O4)c3)n2)C1` [Example $187, 6-{(S)-5-[2-({4-[6-(1-methyl-azetidin-3-yloxy)-pyrazin-2-yl]-pyridin-2-ylmethyl}-amino)-ethyl]-2-oxo-oxazolidin-3-yl}-4H-pyrido[3,2-b][1,4]oxazin-3-one], the minimum inhibitory concentration (MIC) turned out to be 0.5 µg/mL (≈ 0.939 µM) in experiment [1], 0.5 µg/mL (≈ 0.939 µM) in experiment [2], 1 µg/mL (≈ 1.88 µM) in experiment [3] and 0.5 µg/mL (≈ 0.939 µM) in experiment [4].

In the case of `C[C@@H](N)COc1cccc(-c2cccc(CNCC[C@H]3CN(c4ccc5c(n4)NC(=O)CO5)C(=O)O3)c2)n1` [Example 17, 6-[(S)-5-(2-{3-[6-((R)-2-amino-propoxy)-pyridin-2-yl]-benzylamino}-ethyl)-2-oxo-oxazolidin-3-yl]-4H-pyrido[3,2-b][1,4]oxazin-3-one], the MIC in experiment [1] is 0.5 µg/mL (≈ 0.964 µM); in experiment [2] it was 1 µg/mL (≈ 1.93 µM); in experiment [3], 2 µg/mL (≈ 3.86 µM); in experiment [4], 1 µg/mL (≈ 1.93 µM).

Regarding `NCCCCOc1cccc(-c2cccc(CNCC[C@H]3CN(c4ccc5c(n4)NC(=O)CO5)C(=O)O3)c2)c1` [Example 5, 6-[(S)-5-(2-{[3′-(4-amino-butoxy)-biphenyl-3-ylmethyl]-amino}-ethyl)-2-oxo-oxazolidin-3-yl]-4H-pyrido[3,2-b][1,4]oxazin-3-one], the MIC in experiment [1] was 2 µg/mL (≈ 3.76 µM); in experiment [2], 4 µg/mL (≈ 7.52 µM); in experiment [3], 4 µg/mL (≈ 7.52 µM); in experiment [4] it was 4 µg/mL (≈ 7.52 µM).

With `CN1CC[C@H](Oc2cncc(-c3cccc(CNCC[C@H]4CN(c5ccc6c(n5)NC(=O)CO6)C(=O)O4)n3)n2)C1` [Example $145, 6-{(S)-5-[2-({6-[6-((S)-1-methyl-pyrrolidin-3-yloxy)-pyrazin-2-yl]-pyridin-2-ylmethyl}-amino)-ethyl]-2-oxo-oxazolidin-3-yl}-4H-pyrido[3,2-b][1,4]oxazin-3-one], the minimal inhibitory concentration (MIC) in experiment [1] came to 2 µg/mL (≈ 3.66 µM); in experiment [2], 4 µg/mL (≈ 7.32 µM); in experiment [3], 2 µg/mL (≈ 3.66 µM); in experiment [4], 8 µg/mL (≈ 14.6 µM).

Consider `COc1cc(OCCN)cc(-c2cccc(CNCC[C@H]3CN(c4ccc5c(n4)NC(=O)CO5)C(=O)O3)c2)c1` [Example 21, 6-[(S)-5-(2-{[3′-(2-amino-ethoxy)-5′-methoxy-biphenyl-3-ylmethyl]-amino}-ethyl)-2-oxo-oxazolidin-3-yl]-4H-pyrido[3,2-b][1,4]oxazin-3-one], for which the MIC in experiment [1] worked out at 0.5 µg/mL (≈ 0.937 µM); in experiment [2] it was 1 µg/mL (≈ 1.87 µM); in experiment [3], 2 µg/mL (≈ 3.75 µM); in experiment [4] it was 1 µg/mL (≈ 1.87 µM).

For the compound `N[C@@H]1CC[C@H](Oc2cccc(-c3cccc(CNCC[C@H]4CN(c5ccc6c(n5)NC(=O)CO6)C(=O)O4)c3)c2)C1` [$183, 6-[(S)-5-(2-{[3′-((1S,3R)-3-amino-cyclopentyloxy)-biphenyl-3-ylmethyl]-amino}-ethyl)-2-oxo-oxazolidin-3-yl]-4H-pyrido[3,2-b][1,4]oxazin-3-one], the MIC turned out to be 2 µg/mL (≈ 3.68 µM) in experiment [1], 4 µg/mL (≈ 7.36 µM) in experiment [2], 4 µg/mL (≈ 7.36 µM) in experiment [3] and 4 µg/mL (≈ 7.36 µM) in experiment [4].

As to `CN1CC(Oc2cncc(-c3cc(CNCC[C@H]4CN(c5ccc6c(n5)NC(=O)CO6)C(=O)O4)ccn3)n2)C1` [Example $189, 6-{(S)-5-[2-({2-[6-(1-methyl-azetidin-3-yloxy)-pyrazin-2-yl]-pyridin-4-ylmethyl}-amino)-ethyl]-2-oxo-oxazolidin-3-yl}-4H-pyrido[3,2-b][1,4]oxazin-3-one], the MIC is 0.25 µg/mL (≈ 0.469 µM) in experiment [1], 1 µg/mL (≈ 1.88 µM) in experiment [2], 1 µg/mL (≈ 1.88 µM) in experiment [3] and 2 µg/mL (≈ 3.76 µM) in experiment [4].

`NC1[C@H]2CN(CCOc3cccc(-c4cccc(CNCC[C@H]5CN(c6ccc7c(n6)NC(=O)CO7)C(=O)O5)c4)c3)C[C@@H]12` (mixture of isomers) [Example $117, 6-{(S)-5-[2-({3′-[2-((1R*,5S*,6RS)-6-amino-3-aza-bicyclo[3.1.0]hex-3-yl)-ethoxy]-biphenyl-3-ylmethyl}-amino)-ethyl]-2-oxo-oxazolidin-3-yl}-4H-pyrido[3,2-b][1,4]oxazin-3-one]: the “MIC for S. aureus A798” value in experiment [1] was 1 µg/mL. Also, the “MIC for E. coli ATCC25922” value in experiment [2] was 1 µg/mL. Also, in experiment [3], the “MIC for K. pneumoniae T6474” value is 1 µg/mL. Moreover, in experiment [4], the “MIC for P. aeruginosa ATCC 27853” value is 4 µg/mL.

With `CN1CC(Oc2cccc(-c3cccc(CNCC[C@@H]4CN(c5ccc6c(c5)NC(=O)CS6)C(=O)O4)c3)n2)C1` [Example $149, 6-[(R)-5-(2-{3-[6-(1-methyl-azetidin-3-yloxy)-pyridin-2-yl]-benzylamino}-ethyl)-2-oxo-oxazolidin-3-yl]-4H-benzo[1,4]thiazin-3-one], the MIC in experiment [1] was 0.5 µg/mL (≈ 0.916 µM); in experiment [2] it was 0.5 µg/mL (≈ 0.916 µM); in experiment [3] it was 1 µg/mL (≈ 1.83 µM); in experiment [4] it was 1 µg/mL (≈ 1.83 µM).

With `NCCCOc1cccc(-c2cccc(CNCC[C@H]3CN(c4ccc5c(n4)NC(=O)CO5)C(=O)O3)c2)c1` [Example 3, 6-[(S)-5-(2-{[3′-(3-amino-propoxy)-biphenyl-3-ylmethyl]-amino}-ethyl)-2-oxo-oxazolidin-3-yl]-4H-pyrido[3,2-b][1,4]oxazin-3-one], the MIC in experiment [1] stood at 2 µg/mL (≈ 3.86 µM); in experiment [2], 1 µg/mL (≈ 1.93 µM); in experiment [3], 2 µg/mL (≈ 3.86 µM); in experiment [4], 2 µg/mL (≈ 3.86 µM).

`CN1CC[C@H](Oc2cccc(-c3cc(CNCC[C@H]4CN(c5ccc6c(n5)NC(=O)CO6)C(=O)O4)ccn3)n2)C1` [Example $139, 6-[(S)-5-(2-{[6′-((S)-1-methyl-pyrrolidin-3-yloxy)-[2,2′]bipyridinyl-4-ylmethyl]-amino}-ethyl)-2-oxo-oxazolidin-3-yl]-4H-pyrido[3,2-b][1,4]oxazin-3-one]: the MIC turned out to be 0.25 µg/mL (≈ 0.458 µM) in experiment [1], 1 µg/mL (≈ 1.83 µM) in experiment [2], 1 µg/mL (≈ 1.83 µM) in experiment [3] and 2 µg/mL (≈ 3.67 µM) in experiment [4].

In the case of `O=C1COc2ccc(N3C[C@H](CCNCc4cccc(-c5cccc(OCCN6CCCCC6)c5)c4)OC3=O)nc2N1` [Example 13, 6-[(S)-2-oxo-5-(2-{[3′-(2-piperidin-1-yl-ethoxy)-biphenyl-3-ylmethyl]-amino}-ethyl)-oxazolidin-3-yl]-4H-pyrido[3,2-b][1,4]oxazin-3-one], the MIC was 0.5 µg/mL (≈ 0.875 µM) in experiment [1], 2 µg/mL (≈ 3.5 µM) in experiment [2], 2 µg/mL (≈ 3.5 µM) in experiment [3] and 8 µg/mL (≈ 14 µM) in experiment [4].
